Where a name gives a salt, the structure may show the parent alone.
Experiments:
αvβ1 = αvβ1 (Homo sapiens, UniProt P05556+P06756); assay: Solid Phase Integrin αvβ1 Assay; type: binding
Procedure: (§1) The compounds exemplified in this document were tested for their ability to inhibit αvβ1 and αvβ6 in below described solid phase integrin assays.
Solid Phase Integrin αvβ1 Assay
96-well microtiter plates (4 HBX Immulon; Thermo Fisher Scientific, Waltham, MA) were coated with 100 μL/well of 1 μg/mL recombinant TGFb1-LAP in TBS at 4° C., overnight. The coating solution was removed, and plates were blocked with 200 μL/well of blocking and binding buffer (2% BSA/TBST, 1 mM MnCl2) at room temperature for 1 hr. Blocking buffer was removed and 50 μL of binding buffer and testing compounds were added. 50 μL of diluted αvβ1 (0.2 ug/mL in binding buffer) was added to wells (100 μL/well total) for and plates incubated for 90 min at room temperature. Wells were washed thrice with washing buffer (TBS, 0.05% Tween, 1 mM MnCl2) and plates were incubated with 100 μL/well of a 1:12500 dilution of streptavidin-horseradish peroxidase conjugate (Thermo Fisher Scientific) in binding buffer for 20 min at room temperature. Bound protein was detected using the substrate TMB. The IC50 values for testing compounds were calculated by Levenberg-Marquardt four parameter fitting logistics.

αvβ6 = αvβ6 (Homo sapiens, UniProt P06756+P18564); assay: Solid Phase Integrin αvβ6 Assay; type: binding
Chain of αvβ6 (P06756 31-992 limits assumed): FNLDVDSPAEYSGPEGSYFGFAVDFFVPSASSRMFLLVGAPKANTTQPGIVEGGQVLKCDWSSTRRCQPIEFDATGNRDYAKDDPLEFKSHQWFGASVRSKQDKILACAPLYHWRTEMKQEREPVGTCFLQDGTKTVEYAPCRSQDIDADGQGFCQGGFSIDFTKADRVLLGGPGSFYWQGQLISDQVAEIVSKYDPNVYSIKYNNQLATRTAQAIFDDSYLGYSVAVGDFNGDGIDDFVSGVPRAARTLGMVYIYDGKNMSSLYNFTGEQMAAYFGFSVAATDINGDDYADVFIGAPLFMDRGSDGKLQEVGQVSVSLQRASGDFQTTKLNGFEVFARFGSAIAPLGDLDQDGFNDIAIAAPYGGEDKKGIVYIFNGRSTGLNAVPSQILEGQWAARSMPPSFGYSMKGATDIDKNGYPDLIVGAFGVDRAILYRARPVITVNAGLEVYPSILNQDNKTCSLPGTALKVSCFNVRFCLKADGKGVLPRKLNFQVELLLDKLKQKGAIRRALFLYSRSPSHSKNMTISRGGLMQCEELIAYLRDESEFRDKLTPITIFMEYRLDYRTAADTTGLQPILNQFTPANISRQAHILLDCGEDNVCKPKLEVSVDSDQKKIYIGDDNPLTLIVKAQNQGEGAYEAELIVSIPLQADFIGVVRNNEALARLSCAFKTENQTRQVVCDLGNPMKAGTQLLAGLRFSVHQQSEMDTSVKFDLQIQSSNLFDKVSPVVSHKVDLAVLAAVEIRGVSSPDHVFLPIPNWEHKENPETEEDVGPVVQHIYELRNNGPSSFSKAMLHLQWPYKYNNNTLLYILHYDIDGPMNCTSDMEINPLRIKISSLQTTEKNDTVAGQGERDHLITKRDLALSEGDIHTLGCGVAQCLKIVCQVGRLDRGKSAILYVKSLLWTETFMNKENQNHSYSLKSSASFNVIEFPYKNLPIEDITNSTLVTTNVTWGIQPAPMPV
Chain of αvβ6 (P18564 22-707 limits assumed): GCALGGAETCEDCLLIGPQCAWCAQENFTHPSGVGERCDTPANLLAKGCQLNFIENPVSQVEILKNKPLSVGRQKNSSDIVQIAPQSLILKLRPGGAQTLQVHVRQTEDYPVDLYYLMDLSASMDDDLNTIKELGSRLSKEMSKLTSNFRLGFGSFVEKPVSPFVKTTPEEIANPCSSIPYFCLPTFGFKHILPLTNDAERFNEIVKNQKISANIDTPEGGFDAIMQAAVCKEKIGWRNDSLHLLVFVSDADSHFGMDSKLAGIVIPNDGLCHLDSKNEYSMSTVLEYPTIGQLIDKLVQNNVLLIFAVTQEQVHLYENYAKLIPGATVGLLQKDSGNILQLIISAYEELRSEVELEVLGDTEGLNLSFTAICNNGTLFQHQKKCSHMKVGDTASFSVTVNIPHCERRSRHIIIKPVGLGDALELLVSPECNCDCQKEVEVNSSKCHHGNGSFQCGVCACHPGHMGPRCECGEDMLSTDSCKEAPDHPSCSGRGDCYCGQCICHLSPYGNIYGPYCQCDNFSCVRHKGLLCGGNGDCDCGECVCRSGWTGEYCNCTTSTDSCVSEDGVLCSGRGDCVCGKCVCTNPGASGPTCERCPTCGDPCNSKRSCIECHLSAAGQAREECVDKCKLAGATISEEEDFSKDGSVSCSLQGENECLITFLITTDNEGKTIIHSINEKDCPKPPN
Procedure: as §1
Solid Phase Integrin αvβ6 Assay
96-well microtiter plates (4 HBX Immulon; Thermo Fisher Scientific, Waltham, MA) were coated with 100 μL/well of 1 μg/mL recombinant TGFb1-LAP in TBS at 4° C., overnight. The coating solution was removed, and plates were blocked with 200 μL/well of blocking and binding buffer (2% BSA/TBST, 1 mM MnCl2) at room temperature for 1 hr. Blocking buffer was removed and 50 uL of binding buffer and testing compounds were added. 50 μL of diluted αvβ6 (0.2 μg/mL in binding buffer) was added to wells (100 uL/well total) and plates incubated for 1 hr at room temperature. Wells were washed thrice with washing buffer (TBS, 0.05% Tween, 1 mM MnCl2) and plates were incubated with 100 μL/well of a 1:12500) dilution of streptavidin-horseradish peroxidase conjugate (Thermo Fisher Scientific) in binding buffer for 20 min at room temperature. Bound protein was detected using the substrate TMB. The IC50 values for testing compounds were calculated by Levenberg-Marquardt four parameter fitting logistics.

Chain of αvβ1 (P06756 31-992 limits assumed): as the sequence (P06756 31-992 limits assumed) above
Chain of αvβ1 (P05556 21-728 limits assumed): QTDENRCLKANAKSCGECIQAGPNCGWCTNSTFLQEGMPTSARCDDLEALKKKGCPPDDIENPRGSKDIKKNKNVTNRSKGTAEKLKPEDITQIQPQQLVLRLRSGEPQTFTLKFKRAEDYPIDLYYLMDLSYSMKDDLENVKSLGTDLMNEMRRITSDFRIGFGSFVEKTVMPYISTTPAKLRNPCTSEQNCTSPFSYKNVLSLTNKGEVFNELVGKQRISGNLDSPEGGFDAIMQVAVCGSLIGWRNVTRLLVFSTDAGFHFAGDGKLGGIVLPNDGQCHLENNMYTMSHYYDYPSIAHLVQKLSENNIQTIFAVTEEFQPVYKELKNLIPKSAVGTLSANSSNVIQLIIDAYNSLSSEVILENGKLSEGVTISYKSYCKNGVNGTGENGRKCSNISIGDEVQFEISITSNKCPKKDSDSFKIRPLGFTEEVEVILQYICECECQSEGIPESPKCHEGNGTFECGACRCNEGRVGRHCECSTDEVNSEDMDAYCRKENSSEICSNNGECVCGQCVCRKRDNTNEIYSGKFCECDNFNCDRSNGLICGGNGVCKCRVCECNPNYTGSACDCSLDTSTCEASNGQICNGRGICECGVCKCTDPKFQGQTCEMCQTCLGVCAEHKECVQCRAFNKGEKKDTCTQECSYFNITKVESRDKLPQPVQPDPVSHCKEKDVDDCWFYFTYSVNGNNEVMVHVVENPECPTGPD

| SMILES | IC50 (αvβ1) | IC50 (αvβ6) |
| --- | --- | --- |
| O=C(O)C[C@@H](NC(=O)[C@@H]1CCCN(CCCc2ccc3c(n2)NCCC3)C1)c1cccc2c1CCCO2 [Compound 216-B, 3-(chroman-5-yl)-3-((R)-1-(3-(5,6,7,8-tetrahydro-1,8-naphthyridin-2-yl)propyl)piperidine-3-carboxamido)propanoic acid] | > 1 µM | > 1 µM |
| O=C(O)CC(NC(=O)[C@@H]1CCCN(CCCc2ccc3c(n2)NCCC3)C1)c1ccc2c(c1)OCC2 (stereo partly drawn) [Compound 217, 3-(2,3-dihydrobenzofuran-6-yl)-3-((R)-1-(3-(5,6,7,8-tetrahydro-1,8-naphthyridin-2-yl)propyl)piperidine-3-carboxamido)propanoic acid hydrochloride] | < 0.1 µM | < 0.1 µM |
| O=C(O)CC(NC(=O)[C@@H]1CCCN(CCCc2ccc3c(n2)NCCC3)C1)c1cccc2c1OCO2 (stereo partly drawn) [Compound 218, 3-(benzo[d][1,3]dioxol-4-yl-3-((R)-1-(3-(5,6,7,8-tetrahydro-1,8-naphthyridin-2-yl)propyl)piperidine-3-carboxamido)propanoic acid hydrochloride] | < 0.1 µM | < 0.1 µM |
| O=C(O)CC(NC(=O)[C@@H]1CCCN(CCCc2ccc3c(n2)NCCC3)C1)c1cccc2c1CCO2 (stereo partly drawn) [Compound 219, 3-(2,3-dihydrobenzofuran-4-yl)-3-((R)-1-(3-(5,6,7,8-tetrahydro-1,8-naphthyridin-2-yl)propyl)piperidine-3-carboxamido)propanoic acid hydrochloride] | < 0.1 µM | < 0.1 µM |
| O=C(O)C[C@H](NC(=O)[C@@H]1CCCN(CCCc2ccc3c(n2)NCCC3)C1)c1cc(Cl)cc(Cl)c1 [Compound 220, (S)-3-(3,5-dichlorophenyl)-3-((R)-1-(3-(5,6,7,8-tetrahydro-1,8-naphthyridin-2-yl)propyl)piperidine-3-carboxamido)propanoic acid] | < 0.1 µM | < 0.1 µM |
| COc1ccc([C@H](CC(=O)O)NC(=O)[C@@H]2CCCN(CCCc3ccc4c(n3)NCCC4)C2)cn1 [Compound 221, (S)-3-(6-methoxypyridin-3-yl)-3-((R)-1-(3-(5,6,7,8-tetrahydro-1,8-naphthyridin-2-yl)propyl)piperidine-3-carboxamido)propanoic acid hydrochloride] | < 0.1 µM | < 0.1 µM |
| O=C(O)CC(NC(=O)[C@@H]1CCCN(CCCc2ccc3c(n2)NCCC3)C1)c1cc(Cl)cc(C(F)(F)F)c1 (stereo partly drawn) [Compound 222, 3-(3-chloro-5-(trifluoromethyl)phenyl)-3-((R)-1-(3-(5,6,7,8-tetrahydro-1,8-naphthyridin-2-yl)propyl)piperidine-3-carboxamido)propanoic acid hydrochloride] | < 0.1 µM | < 0.1 µM |
| O=C(O)CC(NC(=O)[C@@H]1CCCN(CCCc2ccc3c(n2)NCCC3)C1)c1cc(C(F)(F)F)cc(C(F)(F)F)c1 (stereo partly drawn) [Compound 223, 3-(3,5-bis(trifluoromethyl)phenyl)-3-((R)-1-(3-(5,6,7,8-tetrahydro-1,8-naphthyridin-2-yl)propyl)piperidine-3-carboxamido)propanoic acid formic acid] | < 0.1 µM | < 0.1 µM |
| O=C(O)C[C@H](NC(=O)[C@@H]1CCCN(CCCc2ccc3c(n2)NCCC3)C1)c1cccc(C2CC2)c1 [Compound 224, (S)-3-(3-Cyclopropylphenyl)-3-((R)-1-(3-(5,6,7,8-Tetrahydro-1,8-Naphthyridin-2-YI)Propyl)Piperidine-3-Carboxamido)Propanoic Acid hydrochloride] | < 0.1 µM | < 0.1 µM |
| Cc1cc(C)n(-c2cccc([C@H](CC(=O)O)NC(=O)[C@@H]3CCCN(CCCc4ccc5c(n4)NCCC5)C3)c2)n1 [Compound 225, (S)-3-(3-(3,5-dimethyl-1H-pyrazol-1-yl)phenyl)-3-((R)-1-(3-(5,6,7,8-tetrahydro-1,8-naphthyridin-2-yl)propyl)piperidine-3-carboxamido)propanoic acid hydrochloride] | < 0.1 µM | < 0.1 µM |
| Cc1cnn(C)c1-c1cccc([C@H](CC(=O)O)NC(=O)[C@@H]2CCCN(CCCc3ccc4c(n3)NCCC4)C2)c1 [Compound 226, (S)-3-(3-(1,4-dimethyl-1H-pyrazol-5-yl)phenyl)-3-((R)-1-(3-(5,6,7,8-tetrahydro-1,8-naphthyridin-2-yl)propyl)piperidine-3-carboxamido)propanoic acid hydrochloride] | < 0.1 µM | < 0.1 µM |

Next, values leading:

| IC50 (αvβ1) | IC50 (αvβ6) | SMILES |
| --- | --- | --- |
| < 0.1 µM | < 0.1 µM | O=C(O)C[C@H](NC(=O)[C@@H]1CCCN(CCCc2ccc3c(n2)NCCC3)C1)c1cccc(N2CCCC2)c1 [Compound 227, (S)-3-(3-(pyrrolidin-1-yl)phenyl)-3-((R)-1-(3-(5,6,7,8-tetrahydro-1,8-naphthyridin-2-yl)propyl)piperidine-3-carboxamido)propanoic acid] |
| < 0.1 µM | < 0.1 µM | CN1CCN(c2cccc([C@H](CC(=O)O)NC(=O)[C@@H]3CCCN(CCCc4ccc5c(n4)NCCC5)C3)c2)CC1 [Compound 228, (S)-3-(3-(4-methylpiperazin-1-yl)phenyl)-3-((R)-1-(3-(5,6,7,8-tetrahydro-1,8-naphthyridin-2-yl)propyl)piperidine-3-carboxamido)propanoic acid] |
| < 0.1 µM | < 0.1 µM | O=C(O)C[C@H](NC(=O)[C@@H]1CCCN(CCCc2ccc3c(n2)NCCC3)C1)c1cccc(N2CCOCC2)c1 [Compound 229, (S)-3-(3-morpholinophenyl)-3-((R)-1-(3-(5,6,7,8-tetrahydro-1,8-naphthyridin-2-yl)propyl)piperidine-3-carboxamido)propanoic acid hydrochloride] |
| < 0.1 µM | < 0.1 µM | CC1(C)CCCN(c2cccc([C@H](CC(=O)O)NC(=O)[C@@H]3CCCN(CCCc4ccc5c(n4)NCCC5)C3)c2)C1 [Compound 230, (S)-3-(3-(3,3-dimethylpiperidin-1-yl)phenyl)-3-((R)-1-(3-(5,6,7,8-tetrahydro-1,8-naphthyridin-2-yl)propyl)piperidine-3-carboxamido)propanoic acid] |
| < 0.1 µM | < 0.1 µM | O=C(O)C[C@H](NC(=O)[C@@H]1CCCN(CCCc2ccc3c(n2)NCCC3)C1)c1cccc(C2CCCC2)c1 [Compound 231, (S)-3-(3-cyclopentylphenyl)-3-((R)-1-(3-(5,6,7,8-tetrahydro-1,8-naphthyridin-2-yl)propyl)piperidine-3-carboxamido)propanoic acid hydrochloride] |
| < 0.1 µM | < 0.1 µM | O=C(O)C[C@H](NC(=O)[C@@H]1CCCN(CCCc2ccc3c(n2)NCCC3)C1)c1cccc(N2CCCCC2)c1 [Compound 232, (S)-3-(3-(piperidin-1-yl)phenyl)-3-((R)-1-(3-(5,6,7,8-tetrahydro-1,8-naphthyridin-2-yl)propyl)piperidine-3-carboxamido)propanoic acid hydrochloride] |
| < 0.1 µM | < 0.1 µM | O=C(O)CC(NC(=O)[C@@H]1CCCN(CCCc2ccc3c(n2)NCCC3)C1)c1cnn(-c2ccccc2)c1 (stereo partly drawn) [Compound 233, 3-(1-phenyl-1H-pyrazol-4-yl)-3-((R)-1-(3-(5,6,7,8-tetrahydro-1,8-naphthyridin-2-yl)propyl)piperidine-3-carboxamido)propanoic acid hydrochloride] |
